Results: patent publication US20100022640A1, “ESTERS OF 2-[…] AND ANTIFUNGAL COMPOSITIONS CONTAINING THEM” (priority 2006, published 2010)
Converted amounts (≈) assume the structure as drawn.

How the values were obtained:
Assay type in all cases: cell-based
[1] = test system: Aspergillis niger; assay: Fungistatic endpoint in inoculated culture medium, Aspergillis niger; settings: lowest concentration preventing visible growth, Bushnell-Haas medium with dextrose 10 g/L and yeast extract 0.1 g/L, pH 7.0; for MIC: read-out: Fungistatic Endpoint (ppm Range) Aspergillis niger
Experimental: (§1) The microorganisms involved in these tests were Aspergillis niger, Candida albicans, Trichophyton metagrophytes, and Pichia pastoris. The various esters tested are listed in the following table together with their fungistatic endpoints.
(§2) Fungistatic endpoints were determined by combining the compounds at several dosage levels in a culture medium which had been freshly inoculated with spores of the test organisms. Five mL aliquots were placed in sterile culture tubes. The test compounds dissolved in the appropriate solvent were added to obtain the desired concentration of the compound in the culture medium. Following incubation at suitable conditions, the presence of growth was determined visually at each concentration of the biocide. The lowest concentration of the compound preventing growth was taken as the fungistatic endpoint. Controls containing the solvent alone at the highest dosage were made to insure that no microbial inhibition was produced by the solvent.
(§3) The culture media used in these tests was the Bushnell-Haas medium from Difco. Dextrose at 10 g/L and yeast extract at 0.1 g/L were added to obtain growth of the test organisms. The dilute solution of the Bushnell Haas media which was used in these tests contains: 0.20 g/L magnesium sulfate; 0.02 g/L calcium chloride; 1.00 g/L monopotassium phosphate; 1.00 g/L dipotassium phosphate; 1.00 g/L ammonium nitrate, and 0.05 g/L ferric chloride. The final pH of the media was 7.0±0.2 at 25° C.

[2] = test system: Candida albicans; assay: Fungistatic endpoint in inoculated culture medium, Candida albicans; settings: lowest concentration preventing visible growth, Bushnell-Haas medium with dextrose 10 g/L and yeast extract 0.1 g/L, pH 7.0; for MIC: Candida albicans, read-out: Fungistatic Endpoint (ppm Range) Candida albicans
Experimental: as §1, §2, §3

[3] = test system: Trichophyton metagrophytes; assay: Fungistatic endpoint in inoculated culture medium, T. metagrophytes; settings: lowest concentration preventing visible growth, Bushnell-Haas medium with dextrose 10 g/L and yeast extract 0.1 g/L, pH 7.0; for MIC: Trichophyton, read-out: Fungistatic Endpoint (ppm Range) T. metagrophytes
Experimental: as §1, §2, §3

[4] = test system: Pichia pastoris; assay: Fungistatic endpoint in inoculated culture medium, Pichia pastoris; settings: lowest concentration preventing visible growth, Bushnell-Haas medium with dextrose 10 g/L and yeast extract 0.1 g/L, pH 7.0; for MIC: Komagataella pastoris, read-out: Fungistatic Endpoint (ppm Range) Pichia. pastoris
Experimental: as §1, §2, §3

| Structure (SMILES) | MIC [1] [µg/mL] | MIC [2] [µg/mL] | MIC [3] [µg/mL] | MIC [4] [µg/mL] | other results |
| --- | --- | --- | --- | --- | --- |
| N#CC(COC=O)c1cc(Cl)ccc1Cl (stereo not drawn) [Example 30, 2-(2,5-dichlorophenyl)-3-(formyloxy)propanenitrile] | < 16 | < 16 | < 16 |  |  |
| N#CC(COC(=O)Cc1ccccc1)c1cc(OC(F)F)ccc1Cl (stereo not drawn) [Example 31] |  |  |  |  | Fungistatic Endpoint (ppm Range) Pichia. pastoris [4]: 64 ppm; Fungistatic Endpoint (ppm Range) Candida albicans [2]: >64 ppm; Fungistatic Endpoint (ppm Range) T. metagrophytes [3]: <16 ppm |
| CC(=O)OCC(C#N)c1ccc(Cl)cc1Cl (stereo not drawn) [Example 8, 3-acetoxy-2-(2,4-dichlorophenyl)propanenitrile] |  | 16 (≈ 62 µM) | 16 to 32 (≈ 62 to 124 µM) | < 16 |  |
| COCC(OC(C)=O)C(C#N)c1ccc(OC)cc1 (stereo not drawn) [Example 26, 3-acetoxy-2-(4-methoxyphenyl)-4-methoxybutanenitrile] | 128 to 256 (≈ 486 to 972 µM) |  |  |  |  |
| CC(=O)OCC(C#N)c1ccccc1Cl (stereo not drawn) [Example 14, 3-acetoxy-2-(2-chlorophenyl)propanenitrile] |  | 16 (≈ 71.5 µM) | 32 (≈ 143 µM) | 16 (≈ 71.5 µM) |  |
| CC(=O)OCC(C#N)c1cccc(Oc2ccccc2)c1 (stereo not drawn) [Example 33] |  |  |  |  | Fungistatic Endpoint (ppm Range) Aspergillis niger [1]: 128-256 ppm |
| CC(=O)OCC(C#N)c1ccc(C)cc1 (stereo not drawn) [Example 21, 3-acetoxy-2-(4-methylphenyl)propanenitrile] | 64 (≈ 315 µM) |  |  |  |  |
| CC(=O)OCC(C#N)c1cc(Cl)ccc1OC(F)F (stereo not drawn) [Example 7, 3-acetoxy-2-(5-chloro-2-(difluoromethoxy)phenyl)propanenitrile] |  | 32 (≈ 110 µM) | 32 (≈ 110 µM) | 32 (≈ 110 µM) |  |
| COc1ccc(C(C#N)COC(C)=O)cc1 (stereo not drawn) [Example 24, 3-acetoxy-2-(4-methoxyphenyl)propanenitrile] | 128 (≈ 584 µM) |  |  |  |  |
| N#CC(COC=O)c1cc(OC(F)F)ccc1Cl (stereo not drawn) [Example 29, 2-(2-chloro-5-(difluoromethoxy)phenyl)-3-(formyloxy)propanenitrile] | < 16 | < 16 | < 16 |  |  |
| CC(=O)OCC(C#N)c1cc(Cl)ccc1Cl (stereo not drawn) [Example 6, 3-acetoxy-2-(2,5-dichlorophenyl)propanenitrile] |  | < 16 | < 16 |  |  |
| COc1ccc(C(C#N)C(C)OC(C)=O)cc1 (stereo not drawn) [Example 25, 3-acetoxy-2-(4-methoxyphenyl)butanentrile] |  |  |  |  | Fungistatic Endpoint (ppm Range) Aspergillis niger [1]: 128-256 ppm |
| CC(=O)OCC(C#N)c1ccccc1 (stereo not drawn) [Example 32, 3-acetoxy-2-phenylpropanenitrile] |  | > 64 | 16 (≈ 84.6 µM) | 16 to 32 (≈ 84.6 to 169 µM) |  |
| CCOC(=O)C(OC(C)=O)C(C#N)c1ccc(Cl)cc1 (stereo not drawn) [Example 28, ethyl 2-acetoxy-3-(4-chlorophenyl)-3-cyanopropanoate] | 128 (≈ 433 µM) |  |  |  |  |
| CC(=O)OC(C)C(C#N)c1ccc(Cl)cc1 (stereo not drawn) [Example 19, 3-acetoxy-2-(4-chlorophenyl)butanenitrile] |  | 16 to 32 (≈ 67.3 to 135 µM) | 32 to 64 (≈ 135 to 269 µM) | 16 (≈ 67.3 µM) |  |
| COCC(OC(C)=O)C(C#N)c1ccc(Cl)cc1 (stereo not drawn) [Example 20, 3-acetoxy-2-(4-chlorophenyl)-4-methoxybutanenitrile] | 64 to 128 (≈ 239 to 478 µM) |  |  |  |  |
| COCC(OC(C)=O)C(C#N)c1ccc(C)cc1 (stereo not drawn) [Example 23, 3-acetoxy-2-(4-methylphenyl)-4methoxybutanenitride] |  |  |  |  | Fungistatic Endpoint (ppm Range) Aspergillis niger [1]: 128-256 ppm |
| CC(=O)OC(C)C(C#N)c1ccc(C)cc1 (stereo not drawn) [Example 22, 3-acetoxy-2-(4-methylphenyl)butanenitrile] | 128 to 256 (≈ 589 to 1180 µM) |  |  |  |  |
| CC(=O)OCC(C#N)c1ccccc1C(F)(F)F (stereo not drawn) [Example 10, 3-acetoxy-2-(2-(trifluoromethyl)phenyl)propanenitrile] | 128 to 256 (≈ 498 to 995 µM) | > 64 | > 64 | > 64 |  |
| CC(=O)OCC(C#N)c1ccc(Cl)cc1C (stereo not drawn) [Example 12, 3-acetoxy-2-(4-chloro-2-methylphenyl)propanenitrile] | 64 to 128 (≈ 269 to 539 µM) | > 64 | > 64 | > 64 |  |
| CC(=O)OCC(C#N)c1ccc(Cl)cc1 (stereo not drawn) [Example 16, 3-acetoxy-2-(4chlorophenyl)propanenitrile] |  | < 16 | < 16 | < 16 |  |
| CC(=O)OCC(C#N)c1cc(OC(F)F)ccc1Cl (stereo not drawn) [Example 5, 3-acetoxy-2-(2-chloro-5-(difluoromethoxy)phenyl)propanenitrile] |  | < 16 | < 16 |  |  |
